Test results from US8618289B2 (Ambit Biosciences Corporation, priority 2008, dated 2013).
Where a name gives a salt, the structure may show the parent alone.

Columns and labels:
RAF kinases [1] = target: RAF kinases (Homo sapiens, UniProt P15056, V600E); assay: biochemical
[2] = tested on: MEK1 phosphorylation in the A375 human melanoma cell line; assay: cells; details: A-375, read-out: pMEK IC50
A375 cells = assay: cells; details: Homo sapiens, A-375, read-out: A375 Viability EC50
RAF kinases [3] = target: RAF kinases (Homo sapiens, UniProt P15056); assay: biochemical
Chain of RAF kinases (Homo sapiens, UniProt P15056) (P15056 whole entry): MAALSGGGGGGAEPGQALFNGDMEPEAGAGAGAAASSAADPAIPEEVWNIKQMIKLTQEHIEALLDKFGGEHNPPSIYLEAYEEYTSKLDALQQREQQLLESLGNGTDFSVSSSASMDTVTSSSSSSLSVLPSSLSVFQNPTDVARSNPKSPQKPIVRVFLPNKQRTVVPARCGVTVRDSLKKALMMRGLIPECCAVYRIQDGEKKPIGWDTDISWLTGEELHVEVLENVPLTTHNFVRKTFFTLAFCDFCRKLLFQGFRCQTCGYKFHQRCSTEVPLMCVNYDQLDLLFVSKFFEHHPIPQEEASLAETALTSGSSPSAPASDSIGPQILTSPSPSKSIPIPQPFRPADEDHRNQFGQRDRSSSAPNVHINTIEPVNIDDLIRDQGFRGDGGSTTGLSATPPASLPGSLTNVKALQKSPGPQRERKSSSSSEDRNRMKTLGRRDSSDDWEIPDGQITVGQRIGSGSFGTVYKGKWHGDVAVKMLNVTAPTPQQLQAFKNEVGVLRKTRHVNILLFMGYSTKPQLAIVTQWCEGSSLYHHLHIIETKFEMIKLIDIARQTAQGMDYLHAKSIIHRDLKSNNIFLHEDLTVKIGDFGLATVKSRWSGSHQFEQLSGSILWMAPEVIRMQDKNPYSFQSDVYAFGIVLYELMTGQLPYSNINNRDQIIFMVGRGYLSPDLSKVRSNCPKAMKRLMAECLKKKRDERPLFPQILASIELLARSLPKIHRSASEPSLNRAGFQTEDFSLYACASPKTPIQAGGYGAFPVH

Chain of RAF kinases (Homo sapiens, UniProt P15056, V600E) (P15056 whole entry V600E): as the sequence (P15056 whole entry) above, with V600E counted along it

## COc1cc2ncnc(Oc3cc(NC(=O)Nc4cc(C(C)(C)C)on4)ccc3Cl)c2cc1OC [Ex 10, 1-(5-tert-butylisoxazol-3-yl)-3-(4-chloro-3-(6,7-dimethoxyquinazolin-4-yloxy)phenyl)urea]
RAF kinases [1]
  Kd: 500 to 1000 nM
[2]
  IC50: > 1000 nM
A375 cells
  EC50: > 1000 nM

## CCOc1cc2ncnc(Oc3cccc(NC(=O)Nc4cc(C(C)(C)C)on4)c3)c2cc1OCC [Ex 13, 1-(5-tert-butylisoxazol-3-yl)-3-[3-(6,7-diethoxyquinazolin-4-yloxy)phenyl]urea hydrochloride]
RAF kinases [1]
  Kd: 250 to 500 nM
[2]
  IC50: 250 to 500 nM
A375 cells
  EC50: 500 to 1000 nM

## CC(C)(C)c1cc(NC(=O)Nc2cccc(Sc3ncnc4cc(F)c(F)cc34)c2)no1 [Ex 47, 1-(5-tert-butylisoxazol-3-yl)-3-(3-(6,7-difluoroquinazolin-4-ylthio)phenyl)urea]
RAF kinases [1]
  Kd: 500 to 1000 nM
[2]
  IC50: > 1000 nM
A375 cells
  EC50: > 1000 nM

## COc1ccc2c(Sc3cccc(NC(=O)Nc4cc(C(C)(C)C)on4)c3)ncnc2c1 [Ex 48, 1-(5-tert-butylisoxazol-3-yl)-3-(3-(7-methoxyquinazolin-4-ylthio)phenyl)urea]
RAF kinases [1]
  Kd: 250 to 500 nM
[2]
  IC50: 500 to 1000 nM
A375 cells
  EC50: > 1000 nM

## CCOc1cc2ncnc(Sc3cccc(NC(=O)Nc4cc(C(C)(C)C)on4)c3)c2cc1OCC [Ex 51, 1-(5-tert-butylisoxazol-3-yl)-3-[3-(6,7-diethoxyquinazolin-4-ylthio)phenyl]urea]
RAF kinases [1]
  Kd: 500 to 1000 nM
[2]
  IC50: 250 to 500 nM
A375 cells
  EC50: > 1000 nM

## CC(C)(C)c1cc(NC(=O)Nc2cccc(Sc3ncnc4cc5c(cc34)OCCO5)c2)no1 [Ex 54, 1-(5-tert-butylisoxazol-3-yl)-3-[3-(7,8-dihydro-[1,4]dioxino[2,3-g]quinazolin-4-ylthio)phenyl]urea hydrochloride]
RAF kinases [1]
  Kd: 500 to 1000 nM
[2]
  IC50: 500 to 1000 nM
A375 cells
  EC50: > 1000 nM

## COc1cc2c(Oc3cccc(NC(=O)Nc4cc(C(C)(C)C)on4)c3)ncnc2cc1O[C@H]1CCN(CC(F)F)C1 [Ex 103, (S)-1-(5-tert-butylisoxazol-3-yl)-3-(3-{7-[1-(2,2-difluoroethyl)pyrrolidin-3-yloxy]-6-methoxyquinazolin-4-yloxy}phenyl)urea]
RAF kinases [1]
  Kd: 250 to 500 nM
[2]
  IC50: 500 to 1000 nM
A375 cells
  EC50: > 1000 nM

## COc1cc2ncnc(Oc3cccc(NC(=O)Nc4cc(C(C)(C)C)on4)c3)c2cc1O[C@H]1CCN(C(=O)OC(C)(C)C)C1 [Ex 108, (S)-tert-butyl 3-(4-(3-(3-(5-tert-butylisoxazole-3-yl)ureido)phenoxy)-7-methoxyquinazolin-6-yloxy)pyrrolidine-1-carboxylate]
RAF kinases [1]
  Kd: 500 to 1000 nM
[2]
  IC50: < 250 nM
A375 cells
  EC50: 500 to 1000 nM

## COc1cc2ncnc(Oc3cccc(NC(=O)Nc4cc(-c5ccccc5)on4)c3)c2cc1OC [Ex 113, 1-(3-(6,7-dimethoxyquinazolin-4-yloxy)phenyl)-3-(5-phenylisoxazol-3-yl)urea]
RAF kinases [1]
  Kd: 250 to 500 nM
RAF kinases [3]
  Kd: 500 to 1000 nM
[2]
  IC50: 500 to 1000 nM
A375 cells
  EC50: > 1000 nM

## COCC(C)(C)c1cc(NC(=O)Nc2cccc(Oc3ncnc4cc(OC)c(OC)cc34)c2)no1 [Ex 130, 1-(3-(6,7-dimethoxyquinazolin-4-yloxy)phenyl)-3-(5-(1-methoxy-2-methylpropan-2-yl)isoxazol-3-yl)urea]
RAF kinases [1]
  Kd: 250 to 500 nM
[2]
  IC50: 250 to 500 nM
A375 cells
  EC50: > 1000 nM

## COCCOc1cc(NC(=O)Nc2cccc(Sc3ncnc4cc(OC)c(OC)cc34)c2)ccc1C(F)(F)F [Ex 148, 1-(3-(6,7-dimethoxyquinazolin-4-ylthio)phenyl)-3-(3-(2-methoxyethoxy)-4-(trifluoromethyl)phenyl)urea]
RAF kinases [1]
  Kd: 500 to 1000 nM
[2]
  IC50: > 1000 nM
A375 cells
  EC50: > 1000 nM

## COc1cc2ncnc(Oc3cccc(NC(=O)Nc4cc(C(=O)N5CCOCC5)cc(C(F)(F)F)c4)c3)c2cc1OC [Ex 149, 1-(3-(6,7-dimethoxyquinazolin-4-yloxy)phenyl)-3-(3-(morpholine-4-carbonyl)-5-(trifluoromethyl)phenyl)urea]
RAF kinases [1]
  Kd: 500 to 1000 nM
[2]
  IC50: > 1000 nM
A375 cells
  EC50: > 1000 nM

## COc1cc2ncnc(Oc3cccc(NC(=O)Nc4cc(C(C)(C)C)nn4-c4ccccc4)c3)c2cc1OC [Ex 153, 1-(3-tert-butyl-1-phenyl-1H-pyrazol-5-yl)-3-(3-(6,7-dimethoxyquinazolin-4-yloxy)phenyl)urea]
RAF kinases [1]
  Kd: 500 to 1000 nM
[2]
  IC50: < 250 nM

## COc1cc2ncnc(Oc3cccc(NC(=O)Nc4cc(C5(C(F)(F)F)CCC5)no4)c3)c2cc1OC [Ex 155, 1-(3-(6,7-dimethoxyquinazolin-4-yloxy)phenyl)-3-(3-(1-(trifluoromethyl)cyclobutyl)isoxazol-5-yl)urea]
RAF kinases [1]
  Kd: 250 to 500 nM
[2]
  IC50: 250 to 500 nM
A375 cells
  EC50: > 1000 nM

## COc1cc2ncnc(Sc3cccc(NC(=O)Nc4cc(C5(C(F)(F)F)CCC5)no4)c3)c2cc1OC [Ex 156, 1-(3-(6,7-dimethoxyquinazolin-4-ylthio)phenyl)-3-(3-(1-(trifluoromethyl)cyclobutyl)isoxazol-5-yl)urea]
RAF kinases [1]
  Kd: 500 to 1000 nM
[2]
  IC50: 500 to 1000 nM
A375 cells
  EC50: > 1000 nM

## COc1cc2ncnc(Oc3cccc(NC(=O)Nc4cc(C(F)(F)F)nn4-c4ccccc4)c3)c2cc1OC [Ex 161, 1-[3-(6,7-dimethoxyquinazolin-4-yloxy)phenyl]-3-[1-phenyl-3-(trifluoromethyl)-1H-pyrazol-5-yl]urea]
RAF kinases [1]
  Kd: 500 to 1000 nM
[2]
  IC50: < 250 nM
A375 cells
  EC50: 250 to 500 nM

## CCOC(=O)Cn1nc(C(C)(C)C)cc1NC(=O)Nc1cccc(Oc2ncnc3cc(OC)c(OC)cc23)c1 [Ex 166, ethyl 2-(3-tert-butyl-5-{3-[3-(6,7-dimethoxyquinazolin-4-yloxy)phenyl]ureido}-1H-pyrazol-1-yl)acetate]
RAF kinases [1]
  Kd: 250 to 500 nM
[2]
  IC50: 500 to 1000 nM
A375 cells
  EC50: > 1000 nM

## CCOC(C)(C)c1cc(NC(=O)Nc2cccc(Oc3ncnc4cc(OC)c(OC)cc34)c2)n(-c2ccccc2)n1 [Ex 168, 1-[3-(6,7-dimethoxyquinazolin-4-yloxy)phenyl]-3-[3-(2-ethoxypropan-2-yl)-1-phenyl-1H-pyrazol-5-yl]urea]
RAF kinases [1]
  Kd: 500 to 1000 nM
[2]
  IC50: < 250 nM
A375 cells
  EC50: > 1000 nM

## COc1cc2ncnc(Oc3cccc(NC(=O)Nc4cc(C(F)(F)F)nn4-c4ccc(F)cc4)c3)c2cc1OC [Ex 171, 1-[3-(6,7-dimethoxyquinazolin-4-yloxy)phenyl]-3-[1-(4-fluorophenyl)-3-(trifluoromethyl)-1H-pyrazol-5-yl]urea]
RAF kinases [1]
  Kd: 500 to 1000 nM
[2]
  IC50: 250 to 500 nM
A375 cells
  EC50: 250 to 500 nM

## COc1cc2ncnc(Oc3cccc(NC(=O)Nc4cc(C(F)(F)F)nn4-c4ccc(C)cc4)c3)c2cc1OC [Ex 172, 1-[3-(6,7-dimethoxyquinazolin-4-yloxy)phenyl]-3-[1-p-tolyl-3-(trifluoromethyl)-1H-pyrazol-5-yl]urea]
RAF kinases [1]
  Kd: 500 to 1000 nM
[2]
  IC50: < 250 nM
A375 cells
  EC50: < 250 nM

## COc1cc2ncnc(Sc3cccc(NC(=O)Nc4ccc(Cl)c(C(F)(F)F)c4)c3)c2cc1OC [Ex 186, 1-(4-chloro-3-(trifluoromethyl)phenyl)-3-(3-(6,7-dimethoxyquinazolin-4-ylthio)phenyl)urea]
RAF kinases [1]
  Kd: 250 to 500 nM
[2]
  IC50: 250 to 500 nM
A375 cells
  EC50: 500 to 1000 nM

## COc1cc2ncnc(Sc3cccc(NC(=O)Nc4ccc(C(F)(F)F)c(OC)c4)c3)c2cc1OC [Ex 190, 1-(3-(6,7-dimethoxyquinazolin-4-ylthio)phenyl)-3-(3-methoxy-4-(trifluoromethyl)phenyl)urea]
RAF kinases [1]
  Kd: 500 to 1000 nM
[2]
  IC50: > 1000 nM
A375 cells
  EC50: > 1000 nM

## COc1cc2ncnc(Sc3cccc(NC(=O)Nc4cc(C(F)(F)F)nn4-c4ccccc4)c3)c2cc1OC [Ex 192, 1-[3-(6,7-dimethoxyquinazolin-4-ylthio)phenyl]-3-[1-phenyl-3-(trifluoromethyl)-1H-pyrazol-5-yl]urea]
RAF kinases [1]
  Kd: 500 to 1000 nM
[2]
  IC50: < 250 nM
A375 cells
  EC50: 250 to 500 nM

## CCOC(=O)Cn1nc(C(C)(C)C)cc1NC(=O)Nc1cccc(Sc2ncnc3cc(OC)c(OC)cc23)c1 [Ex 195, ethyl 2-(3-tert-butyl-5-{3-[3-(6,7-dimethoxyquinazolin-4-ylthio)phenyl]ureido}-1H-pyrazol-1-yl)acetate]
RAF kinases [1]
  Kd: 250 to 500 nM
[2]
  IC50: 250 to 500 nM
A375 cells
  EC50: > 1000 nM

## COc1cc2ncnc(Sc3cccc(NC(=O)Nc4cc(C(F)(F)F)nn4-c4ccc(F)cc4)c3)c2cc1OC [Ex 198, 1-[3-(6,7-dimethoxyquinazolin-4-ylthio)phenyl]-3-[1-(4-fluorophenyl)-3-(trifluoromethyl)-1H-pyrazol-5-yl]urea]
RAF kinases [1]
  Kd: 500 to 1000 nM
[2]
  IC50: 250 to 500 nM
A375 cells
  EC50: 500 to 1000 nM

## COCCOc1cc(NC(=O)Nc2cccc(Sc3ncnc4cc(OC)c(OC)cc34)c2)cc(C(F)(F)F)c1 [Ex 200, 1-(3-(6,7-dimethoxyquinazolin-4-ylthio)phenyl)-3-(3-(2-methoxyethoxy)-5-(trifluoromethyl)phenyl)urea]
RAF kinases [1]
  Kd: 500 to 1000 nM
RAF kinases [3]
  Kd: 500 to 1000 nM
[2]
  IC50: > 1000 nM
A375 cells
  EC50: > 1000 nM

## COCCOc1cc2ncnc(Oc3cccc(NC(=O)Nc4cc(C(=O)N5CCOCC5)cc(C(F)(F)F)c4)c3)c2cc1OC [Ex 205, 1-(3-(6-methoxy-7-(2-methoxyethoxy)quinazolin-4-yloxy)phenyl)-3-(3-(morpholine-4-carbonyl)-5-(trifluoromethyl)phenyl)urea]
RAF kinases [1]
  Kd: 250 to 500 nM
[2]
  IC50: > 1000 nM
A375 cells
  EC50: > 1000 nM

## CCOC(C)(C)c1cc(NC(=O)Nc2cccc(Oc3ncnc4cc(OCCOC)c(OC)cc34)c2)n(-c2ccccc2)n1 [Ex 212, 1-[3-(2-ethoxypropan-2-yl)-1-phenyl-1H-pyrazol-5-yl]-3-{3-[6-methoxy-7-(2-methoxyethoxy)quinazolin-4-yloxy]phenyl}urea]
RAF kinases [1]
  Kd: 250 to 500 nM
[2]
  IC50: 500 to 1000 nM
A375 cells
  EC50: > 1000 nM

## CCOC(C)(C)c1cc(NC(=O)Nc2cccc(Sc3ncnc4cc(OCCOC)c(OC)cc34)c2)n(-c2ccccc2)n1 [Ex 241, 1-[3-(2-ethoxypropan-2-yl)-1-phenyl-1H-pyrazol-5-yl]-3-{3-[6-methoxy-7-(2-methoxyethoxy)quinazolin-4-ylthio]phenyl}urea]
RAF kinases [1]
  Kd: 250 to 500 nM
[2]
  IC50: 500 to 1000 nM
A375 cells
  EC50: > 1000 nM
